Experimental data published in article PMC3281842, “Crystal Structure of TDRD3 and Methyl-Arginine Binding Characterization of TDRD3, SMN and SPF30” (PLoS ONE, 2012).
Like-named read-outs stand apart in the source and are kept apart here. Square brackets hold non-standard residues; d marks the D form. Peptide text beside a SMILES is read from it. Arg(Me2a) = CN(C)C(=N)NCCC[C@H](N)C(=O)O; Arg(Me2s) = CN=C(NC)NCCC[C@H](N)C(=O)O; Arg(Me) = CNC(=N)NCCC[C@H](N)C(=O)O

Legend:
[1] = target: T1, TDRD3 (aa 520–633) (Homo sapiens, UniProt Q9H7E2); test: Fluorescence polarization binding assay, TDRD3 Tudor domain; conditions: fluorescein-labeled peptide, 20 mM Tris pH 7.5, 50 mM NaCl, 1 mM DTT, 0.01% Triton X-100, 25°C, average of three independent measurements, NB = no detectable binding
T1 construct: TDRD3 (aa 520–633); His tag (pET28-MHL) (N); made in house; host or cells: Escherichia coli BL21 (DE3)
Experimental: TDRD3 contains a Tudor domain at its C-terminus. […] In order to characterize its binding specificity and affinity quantitatively, we performed a series of fluorescence polarization (FP) binding assays using our fluorescein-labeled peptide library, which includes GAR motif-containing SmD3 and PIWIL1 peptides, PGM motif-containing SmB peptides, and histone H3R2 peptides (Table 1 and Fig. 1). A low salt concentration (50 mM NaCl) is used in the FP binding assay due to the weak binding affinities of these proteins to their ligands. At this salt concentration, the binding affinities are increased about four times compared to the data measured at 200 mM NaCl (Fig. S1), which will save the reagents and make the Kd measurement more reliable. […] Therefore, TDRD3 has a different binding selectivity than SND1, which we have previously established that the extended Tudor domain of SND1 preferentially binds symmetrically dimethylated arginine PIWIL1 peptides. Similar to SND1, the binding selectivity of TDRD3 among these three different arginine methylation marks is about 2 to 4-fold (Table 1).
(§1) Figure 1 Fluorescence polarization binding curves of TDRD3 (aa 520–633), SMN (aa 80–170), and SPF30 (aa 65–150) to the PIWIL1-R4 peptides. The buffer used in the fluorescence polarization assay is 20 mM Tris pH 7.5, 50 mM NaCl, 1 mM DTT and 0.01% Triton X-100. The data are measured at 25°C and corrected for background by subtracting the free-labeled peptide background. The Kd values are the average of three independent measurements.
(§2) All the regular and fluorescent peptides used this study were synthesized by Tufts University Core Services (Boston, USA). The fluorescence polarization assay was carried out as described before. The buffer used in the fluorescence polarization assay is 20 mM Tris pH 7.5, 50 mM NaCl, 1 mM DTT and 0.01% Triton X-100. An excitation wavelength of 485 nm and an emission wavelength of 528 nm are used. The data are measured at 25°C and corrected for background by subtracting the free-labeled peptide background. The data were collected by the Synergy 2 (BioTec, USA) fluorescence polarization program and were fit to one-site binding model using Origin 7 (MicroCal, Inc.). The Kd values are the average of three independent measurements.

[2] = target: T2, SPF30 (aa 65–150) (Homo sapiens, UniProt O75940); test: Fluorescence polarization binding assay, SPF30 Tudor domain; conditions: fluorescein-labeled peptide, 20 mM Tris pH 7.5, 50 mM NaCl, 1 mM DTT, 0.01% Triton X-100, 25°C, average of three independent measurements, NB = no detectable binding
T2 construct: SPF30 (aa 65–150); His tag (pET28-MHL) (N); made in house; host or cells: Escherichia coli BL21 (DE3)
T2 sequence (O75940 65-150): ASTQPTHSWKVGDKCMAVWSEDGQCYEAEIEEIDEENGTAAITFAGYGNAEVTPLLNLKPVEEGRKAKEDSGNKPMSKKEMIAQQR
Experimental: as §1, §2

[3] = target: T3, SMN (aa 80–170) (Homo sapiens, UniProt Q16637); test: Fluorescence polarization binding assay, SMN Tudor domain; conditions: for Kd: fluorescence polarization, fluorescein-labeled peptide, 20 mM Tris pH 7.5, 50 mM NaCl, 1 mM DTT, 0.01% Triton X-100, 25°C, average of three independent measurements, NB = no detectable binding
T3 construct: SMN (aa 80–170); His tag (pET28-MHL) (N); made in house; host or cells: Escherichia coli BL21 (DE3)
Experimental: as §1, §2

[4] = target: T4, SND1 (aa 650–910) (Homo sapiens, UniProt Q7KZF4); test: Fluorescence polarization binding assay, SND1 extended Tudor domain; conditions: values without asterisk in Table 1, NB = no detectable binding
T4 construct: SND1 (aa 650–910)
T4 sequence (Q7KZF4 650-910): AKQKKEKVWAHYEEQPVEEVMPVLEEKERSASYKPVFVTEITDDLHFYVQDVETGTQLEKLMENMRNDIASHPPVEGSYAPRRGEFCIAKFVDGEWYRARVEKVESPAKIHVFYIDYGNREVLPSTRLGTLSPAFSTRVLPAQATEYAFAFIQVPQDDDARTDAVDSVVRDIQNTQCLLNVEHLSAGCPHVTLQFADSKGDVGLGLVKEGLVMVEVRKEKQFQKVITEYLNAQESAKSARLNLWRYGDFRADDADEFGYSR
Experimental: as §2

[5] = target: T1, TDRD3 (aa 520–633); test: ITC (Isothermal Titration Calorimetry) binding, TDRD3; conditions: 20 mM Tris pH 8.0, 200 mM NaCl, 25°C, one-site binding model, NB = no detectable binding
Experimental: Figure 2 Preferential binding of TDRD3 to asymmetrical dimethylated H3R17 peptide over symmetrical dimethylated H3R17 peptide. The ITC measurements were done in 20 mM Tris pH 8.0 and 200 mM NaCl using the same TDRD3 construct as used in Table 1. The measurements were taken at 25°C. Binding isotherms were plotted and analyzed using Origin Software (MicroCal Inc.). The ITC measurements were fit to a one-site binding model. (A) Histone H3R17me2a peptide (TGGKAPRme2aKQLATKA). (B) Histone H3R17me2s peptide (TGGKAPRme2sKQLATKA). (C) PIWIL1_R4me2a peptide (TGRme2aARARA). TEXT PRINTED IN THE PICTURE: (A) H3R17me2a: Kd>1000μM | (B) H3R17me2s: No binding | (C) PIWIL1_R4me2a: Kd>500μM
The protocol for ITC (Isothermal Titration Calorimetry) was carried out as described before. The ITC buffer used in this study is 20 mM Tris pH 8.0 and 200 mM NaCl. The measurements were taken at 25°C. Binding isotherms were plotted and analyzed using Origin Software (MicroCal Inc.). The ITC measurements were fit to a one-site binding model.

[6] = target: T4, SND1 (aa 650–910); conditions: values marked * in Table 1; NB = no detectable binding; ref Liu K et al, PNAS, 2010 [20]; cited from earlier work
Text: Table 1 Binding affinities of TDRD3 (aa 520–633), SMN (aa 80–170), and SPF30 (aa 65–150) to different methyl-arginine peptides in comparison with SND1 (aa 650–910). | column: Kd (µM) / SND1 (aa 650–910)

T3 sequence (Q16637 80-170): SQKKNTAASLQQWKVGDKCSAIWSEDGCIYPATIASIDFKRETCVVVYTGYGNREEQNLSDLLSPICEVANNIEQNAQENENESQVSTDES
T1 sequence (Q9H7E2 520-633): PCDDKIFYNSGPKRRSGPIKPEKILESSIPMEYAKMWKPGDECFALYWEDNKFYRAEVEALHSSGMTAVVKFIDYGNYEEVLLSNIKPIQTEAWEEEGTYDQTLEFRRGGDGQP

C[C@H](NC(=O)[C@H](CCCNC(=N)N)NC(=O)CNC(=O)[C@H](CCCNC(=N)N)NC(=O)[C@H](C)NC(=O)[C@H](CCCNC(=N)N)NC(=O)[C@H](C)NC(=O)[C@H](CCCNC(=N)N)NC(=O)[C@H](C)NC(=O)[C@H](CCCNC(=N)N(C)C)NC(=O)CNC(=O)[C@@H](N)[C@@H](C)O)C(=O)N[C@@H](CCCNC(=N)N)C(=O)NCC(=O)N[C@@H](CCC(N)=O)C(=O)N[C@@H](CCC(=O)O)C(=O)O [PIWIL1-R4me2a] (H-TG[Arg(Me2a)]ARARARGRARGQE-OH)
Kd [1]: > 150 µM
Kd [2]: > 400 µM

CN=C(NC)NCCC[C@H](NC(=O)CNC(=O)[C@@H]1CCCN1C(=O)[C@@H]1CCCN1C(=O)[C@@H](N)Cc1ccc(O)cc1)C(=O)NCC(=O)NCC(=O)N1CCC[C@H]1C(=O)N1CCC[C@H]1C(=O)N1CCC[C@H]1C(=O)O [PGM(SmB165SD)] (H-YPPG[Arg(Me2s)]GGPPP-OH; N-terminus and C-terminus assumed)
Kd [3]: > 300 µM
Kd [2]: > 500 µM
Kd [4]: > 500 µM

C[C@H](NC(=O)[C@H](CCCNC(=N)N)NC(=O)[C@H](C)NC(=O)[C@H](CCCNC(=N)N)NC(=O)[C@H](C)NC(=O)[C@H](CCCNC(=N)N(C)C)NC(=O)CNC(=O)[C@@H](N)[C@@H](C)O)C(=O)O [PIWIL1_R4me2a peptide (TGRme2aARARA)] (H-TG[Arg(Me2a)]ARARA-OH; N-terminus and C-terminus assumed)
Kd [5]: > 500 µM

CN=C(NC)NCCC[C@H](NC(=O)CNC(=O)[C@H](CCCNC(=N)N)NC(=O)CNC(=O)CN)C(=O)NCC(=O)N[C@@H](CCCNC(=N)N)C(=O)NCC(=O)O [SmD3RSDMA] (H-GGRG[Arg(Me2s)]GRG-OH)
Kd [1]: > 400 µM
Kd [2]: > 500 µM

CN=C(NC)NCCC[C@H](NC(=O)[C@H](CCSC)NC(=O)CNC(=O)[C@@H]1CCCN1C(=O)[C@@H]1CCCN1)C(=O)N1CCC[C@H]1C(=O)N1CCC[C@H]1C(=O)N1CCC[C@H]1C(=O)N1CCC[C@H]1C(=O)NCC(=O)O [PGM(SmB214SD)] (H-PPGM[Arg(Me2s)]PPPPG-OH; N-terminus and C-terminus assumed)
Kd [3]: > 400 µM
Kd [2]: > 500 µM
Kd [4]: > 500 µM

CN=C(NC)NCCC[C@H](NC(=O)[C@H](CCSC)NC(=O)CNC(=O)[C@@H]1CCCN1C(=O)[C@@H]1CCCN1)C(=O)NCC(=O)N1CCC[C@H]1C(=O)N1CCC[C@H]1C(=O)N1CCC[C@H]1C(=O)O [PGM(SmB221SD)] (H-PPGM[Arg(Me2s)]GPPP-OH; N-terminus and C-terminus assumed)
Kd [3]: > 500 µM
Kd [2]: > 500 µM
Kd [4]: > 500 µM

ARTK (me)1/2/3 QTARKST [Histone H3K4me1/2/3, histone H3 peptides mono-, di- or trimethylated at K4, reported in one line]
Kd [3]: > 500 µM
Kd [2]: > 500 µM
Kd [6]: > 500 µM

CN=C(NC)NCCC[C@H](NC(=O)[C@@H]1CCCN1C(=O)[C@H](C)NC(=O)[C@H](CCCCN)NC(=O)CNC(=O)CNC(=O)[C@@H](N)[C@@H](C)O)C(=O)N[C@@H](CCCCN)C(=O)N[C@@H](CCC(N)=O)C(=O)N[C@@H](CC(C)C)C(=O)N[C@@H](C)C(=O)N[C@H](C(=O)N[C@@H](CCCCN)C(=O)N[C@@H](C)C(=O)O)[C@@H](C)O [H3R17me2s]
Kd [5]: > 500 µM
Kd TDRD3 (aa 520–633) by ITC [5]: No binding

CC(C)C[C@H](NC(=O)[C@H](CCC(N)=O)NC(=O)[C@H](CCCCN)NC(=O)[C@H](CCCNC(=N)N(C)C)NC(=O)[C@@H]1CCCN1C(=O)[C@H](C)NC(=O)[C@H](CCCCN)NC(=O)CNC(=O)CNC(=O)[C@@H](N)[C@@H](C)O)C(=O)N[C@@H](C)C(=O)N[C@H](C(=O)N[C@@H](CCCCN)C(=O)N[C@@H](C)C(=O)O)[C@@H](C)O [H3R17me2a]
Kd [5]: > 1000 µM

CNC(=N)NCCC[C@H](NC(=O)CNC(=O)[C@@H](N)[C@@H](C)O)C(=O)N[C@@H](C)C(=O)N[C@@H](CCCNC(=N)N)C(=O)N[C@@H](C)C(=O)N[C@@H](CCCNC(=N)N)C(=O)N[C@@H](C)C(=O)N[C@@H](CCCNC(=N)N)C(=O)NCC(=O)N[C@@H](CCCNC(=N)N)C(=O)N[C@@H](C)C(=O)N[C@@H](CCCNC(=N)N)C(=O)NCC(=O)N[C@@H](CCC(N)=O)C(=O)N[C@@H](CCC(=O)O)C(=O)O [PIWIL1-R4me1] (H-TG[Arg(Me)]ARARARGRARGQE-OH; N-terminus and C-terminus assumed)
Kd [1]: > 500 µM
Kd [3]: > 150 µM
binding affinity to SMN, times weaker than for PIWIL1_R4me2s ([3]; ratio of FP Kd values relative to PIWIL1_R4me2s (Kd 34 µM)): over 4 times
Kd [2]: > 500 µM

ARTKQTARK(me)1/2/3STGGKA [Histone H3K9me1/2/3, histone H3 peptides mono-, di- or trimethylated at K9, reported in one line]
Kd [3]: > 500 µM
Kd [2]: > 500 µM
Kd [6]: > 500 µM

CN=C(NC)NCCC[C@H](NC(=O)CNC(=O)[C@@H](N)[C@@H](C)O)C(=O)N[C@@H](C)C(=O)N[C@@H](CCCNC(=N)N)C(=O)N[C@@H](C)C(=O)N[C@@H](CCCNC(=N)N)C(=O)N[C@@H](C)C(=O)N[C@@H](CCCNC(=N)N)C(=O)NCC(=O)N[C@@H](CCCNC(=N)N)C(=O)N[C@@H](C)C(=O)N[C@@H](CCCNC(=N)N)C(=O)NCC(=O)N[C@@H](CCC(N)=O)C(=O)N[C@@H](CCC(=O)O)C(=O)O [PIWIL1-R4me2s] (H-TG[Arg(Me2s)]ARARARGRARGQE-OH)
Kd [1]: > 300 µM
Kd [2]: > 200 µM
